Target: T1, human GK (Homo sapiens, UniProt P35557)
T1 sequence (P35557 1-465): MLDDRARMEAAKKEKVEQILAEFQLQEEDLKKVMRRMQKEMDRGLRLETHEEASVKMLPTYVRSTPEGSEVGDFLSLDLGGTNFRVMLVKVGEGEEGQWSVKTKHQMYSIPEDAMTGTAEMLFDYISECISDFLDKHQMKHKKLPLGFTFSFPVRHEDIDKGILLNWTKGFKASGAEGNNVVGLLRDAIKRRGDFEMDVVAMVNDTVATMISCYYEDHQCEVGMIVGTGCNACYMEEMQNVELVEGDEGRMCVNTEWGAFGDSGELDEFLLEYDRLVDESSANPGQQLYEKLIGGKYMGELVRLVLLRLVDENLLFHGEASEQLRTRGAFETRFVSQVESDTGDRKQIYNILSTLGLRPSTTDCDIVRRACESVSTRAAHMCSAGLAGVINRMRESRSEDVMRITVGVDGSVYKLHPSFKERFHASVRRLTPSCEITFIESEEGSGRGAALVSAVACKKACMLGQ
Test: Glucokinase Activation Screening Assay (coupled enzyme assay with PK and LDH)
Format: biochemical
Settings: activation of human GK in percent of control (control incubation: 2 mM glucose, 0.91% DMSO); compound concentration not stated
Protocol: Glucokinase Activation Screening Assay
GK activity (human or rat enzyme) is measured by a coupled enzyme assay using pyruvate kinase (PK) and lactate dehydrogenase (LDH) as coupling enzymes. GK activity is calculated from the decline in NADH monitored photometrically with a microtiter plate (MTP) reader at 340 nm.
For screening purposes, the GK assay is routinely run in a 384-MTP format, in a total volume of 33 μl/well. 10 μl of the ATP-regeneration solution (in HEPES-buffer*, pH 7.0, 6.73 U/ml pyruvate kinase, 6.8 U/ml lactate dehydrogenase) and 10 μl of the glucokinase-/glucose solution (15 μg/ml, 6.6 mM glucose in HEPES-buffer*, pH 7.0; the concentration of the glucose stock-solution was 660 mM in Millipore H2O) were mixed together with […] of a 10% DMSO solution (in HEPES-buffer*, pH 7.0) containing 3.3-fold the amounts of the compounds to achieve final compound concentrations in the range between 1 nM to 30 μM (sometimes 300 μM) in the assay solution (s. below). The solutions were mixed for 5 sec, and after a centrifugation at 243×g for 5 min, the solutions were preincubated for 25 min at room temperature.
The reaction was started by the addition of 10 μl of the NADH-/ATP-solution (4.29 mM NADH, 4.95 mM ATP, in HEPES-buffer*). The MTP was shaken for 5 sec., and then, the absorbance at 340 nm was monitored continuously in a MTP-reader (TECAN Spectro fluor plus) for the next 27 min (with a MTP-cycling time of 199 sec.). The final concentrations of the various components were as follows: 49.5 mM Hepes, pH 7.0, 1.49 mM PEP, 1,3 mM NADH, 49.5 mM KCl, 4.96 mM MgCl2, 1.5 mM Mg-ATP, 1.98 mM DTT, 2.04 U/ml pyruvate kinase, 2.06 U/ml lactate-dehydrogenase, 0.91% DMSO, 0.15 μg/well glucokinase, and test compounds in the range between 1 nM and 300 μM.
The change in the optical density (ΔOD340 nm) in the presence of the compound was expressed relative to the ΔOD340 nm, ctrl of the control incubation (in the presence of 2 mM glucose and 0.91% DMSO), taking into account the optical density of the blank sample (incubation in the absence of 2 mM glucose). For the determination of the half maximal effective concentration (EC50), the %-Ctrl-values were plotted in a semi-logarithmic graph against the conc. of the compound of interest. The data points were fitted to a sigmoid curve function (f(x)=((%-Ctrlmax−%-Ctrlmin)/(1−(EC50/x **^n(Hill)))+%-Ctrlmin)) by a non-linear regression analysis.
* Hepes-buffer (50 mM Hepes, pH 7.0, 5 mM MgCl2, 50 mM KCl, 1.5 mM PEP, 0.1% BSA). DTT was added to the Hepes-buffer from a 200X stock solution (in Millipore H2O) freshly each day. The final concentration of DTT in the Hepes-buffer is 2 mM.

| SMILES | hGK % CTL |
| --- | --- |
| O=C(Nc1ccccn1)C1CCOc2cc(Cl)c(Cl)cc2C1=O (stereo not drawn) [Compound 1, 7,8-Dichloro-5-oxo-2,3,4,5-tetrahydro-benzo[b]oxepine-4-carboxylic acid pyridine-2-ylamide] | 312 % CTL |
| O=C(Nc1nccs1)C1CCOc2cc(F)ccc2C1=O (stereo not drawn) [Compound 2, 8-Fluoro-5-oxo-2,3,4,5-tetrahydro-benzo[b]oxepine-4-carboxylic acid thiazol-2-ylamide] | 218 % CTL |
| CCc1ccc2c(c1)OCCC(C(=O)Nc1ccccn1)C2=O (stereo not drawn) [Compound 3, 8-Ethyl-5-oxo-2,3,4,5-tetrahydro-benzo[b]oxepine-4-carboxylic acid pyridine-2-ylamide] | 291 % CTL |
| O=C(Nc1ccccn1)C1=Cc2ccccc2OCC1 [Compound 4, 2,3-Dihydro-benzo[b]oxepine-4-carboxylic acid pyridin-2-ylamide] | 129 % CTL |
| O=C(Nc1ccccn1)C1CCOc2cc(Cl)ccc2C1=O (stereo not drawn) [Compound 5, 8-Chloro-5-oxo-2,3,4,5-tetrahydro-benzo[b]oxepine-4-carboxylic acid pyridin-2-ylamide] | 388 % CTL |
| O=C(Nc1ccccn1)C1CCOc2ccccc2C1=O (stereo not drawn) [Compound 6, 5-Oxo-2,3,4,5-tetrahydro-benzo[b]oxepine-4-carboxylic acid pyridin-2-ylamide] | 245 % CTL |
| O=C(Nc1nccs1)C1CCOc2cc(Cl)ccc2C1=O (stereo not drawn) [Compound 7, 8-Chloro-5-oxo-2,3,4,5-tetrahydro-benzo[b]oxepine-4-carboxylic acid thiazol-2-ylamide] | 215 % CTL |
| O=C(Nc1nccs1)C1CCOc2cc(Cl)c(Cl)cc2C1=O (stereo not drawn) [Compound 8, 7,8-Dichloro-5-oxo-2,3,4,5-tetrahydro-benzo[b]oxepine-4-carboxylic acid thiazol-2-ylamide] | 194 % CTL |
| CCc1ccc2c(c1)OCCC(C(=O)Nc1nccs1)C2=O (stereo not drawn) [Compound 9, 8-Ethyl-5-oxo-2,3,4,5-tetrahydro-benzo[b]oxepine-4-carboxylic acid thiazol-2-ylamide] | 207 % CTL |
| O=C(Nc1ccccn1)C1CCOc2ccc(Cl)cc2C1=O (stereo not drawn) [Compound 10, 7-Chloro-5-oxo-2,3,4,5-tetrahydro-benzo[b]oxepine-4-carboxylic acid pyridin-2-ylamide] | 192 % CTL |

Second part, the compound after the results:

| hGK % CTL | SMILES |
| --- | --- |
| 121 % CTL | O=C(Nc1nccs1)C1CCOc2ccc(Cl)cc2C1=O (stereo not drawn) [Compound 11, 7-Chloro-5-oxo-2,3,4,5-tetrahydro-benzo[b]oxepine-4-carboxylic acid thiazol-2-ylamide] |
| 149 % CTL | COc1ccc2c(c1)C(=O)C(C(=O)Nc1ccccn1)CCO2 (stereo not drawn) [Compound 12, 7-Methoxy-5-oxo-2,3,4,5-tetrahydro-benzo[b]oxepine-4-carboxylic acid pyridin-2-ylamide] |
| 124 % CTL | CC1(C)COc2cc(-c3ccc(F)cc3)ccc2C(=O)C1C(=O)Nc1ccccn1 (stereo not drawn) [Compound 13, 8-(4-Fluoro-phenyl)-3,3-dimethyl-5-oxo-2,3,4,5-tetrahydro-benzo[b]oxepine-4-carboxylic acid pyridin-2-ylamide] |
| 115 % CTL | O=C(Nc1nccs1)C1CCOc2ccccc2C1=O (stereo not drawn) [Compound 14, 5-Oxo-2,3,4,5-tetrahydro-benzo[b]oxepine-4-carboxylic acid thiazol-2-ylamide] |
| 94 % CTL | O=C(Nc1ccccn1)C1CCOc2ccc(Oc3ccccc3)cc2C1=O (stereo not drawn) [Compound 15, 5-Oxo-7-phenoxy-2,3,4,5-tetrahydro-benzo[b]oxepine-4-carboxylic acid pyridin-2-ylamide] |
| 181 % CTL | CC1(C)COc2cc(Cl)c(F)cc2C(=O)C1C(=O)Nc1ccccn1 (stereo not drawn) [Compound 16, 8-Chloro-7-fluoro-3,3-dimethyl-5-oxo-2,3,4,5-tetrahydro-benzo[b]oxepine-4-carboxylic acid pyridin-2-ylamide] |
| 104 % CTL | CCc1ccc2c(c1)OCC(C)(C)C(C(=O)Nc1ccccn1)C2=O (stereo not drawn) [Compound 17, 8-Ethyl-3,3-dimethyl-5-oxo-2,3,4,5-tetrahydro-benzo[b]oxepine-4-carboxylic acid pyridin-2-ylamide] |
| 161 % CTL | O=C(Nc1nccs1)C1=Cc2ccccc2OCC1 [Compound 18, 2,3-Dihydro-benzo[b]oxepine-4-carboxylic acid thiazol-2-ylamide] |

From patent US8383838B2, “5-oxo-2,3,4,5-tetrahydro-benzo[b]oxepine-4-carboxylic acid amides and 2,3-dihydro-benzo[b]oxepine-4-carboxylic acid amides for treatment and prevention of diabetes typ 1 and 2” (Merck Patent Gesellschaft mit Beschränkter Haftung, priority 2008, dated 2013)
